In ChEMBL document CHEMBL5120881, “Silencing Tautomerization to Isolate Unstable Physalins from Physalis minima” (J Nat Prod, 2022):

Tests used:
RAW264.7 = assay: Antiinflammatory activity in mouse RAW264.7 assessed as inhibition of LPS-stimulated NO production pretreated with LPS followed by compund addition by Griess reagent based microplate reader assay; type: functional, cell-based; conditions: for IC50: Mus musculus, RAW264.7
A549 = assay: Antiproliferative activity against human A549 cells assessed as reduction in cell viability incubated for 48 hrs by CCK8 assay; type: functional, cell-based; conditions: A549, 48 h
HepG2 = assay: Antiproliferative activity against human HepG2 cells assessed as reduction in cell viability incubated for 48 hrs by CCK8 assay; type: functional, cell-based; conditions: HepG2, 48 h
MCF7 = assay: Antiproliferative activity against human MCF7 cells assessed as reduction in cell viability incubated for 48 hrs by CCK8 assay; type: functional, cell-based; conditions: MCF7, 48 h
SGC-7901 = assay: Antiproliferative activity against human SGC-7901 cells assessed as reduction in cell viability incubated for 48 hrs by CCK8 assay; type: functional, cell-based; conditions: SGC-7901, 48 h
[1] = Cytotoxicity against mouse RAW264.7 cells assessed as reduction in cell viability incubated for 48 hrs by CCK8 assay; type: toxicity, cell-based
[2] = Cytotoxicity against human L02 cells assessed as reduction in cell viability incubated for 48 hrs by CCK8 assay; type: toxicity, cell-based
[3] = Cytotoxicity against mouse RAW264.7 cells assessed as cell viability at 10 uM incubated for 48 hrs by CCK8 assay; type: toxicity, cell-based; conditions: read-out: Activity
[4] = Cytotoxicity against human L02 cells assessed as cell viability at 10 uM incubated for 48 hrs by CCK8 assay; type: toxicity, cell-based; conditions: read-out: Activity

SMILES | IC50 (RAW264.7) [µM] | IC50 (A549) [µM] | IC50 (HepG2) [µM] | IC50 (MCF7) [µM] | IC50 (SGC-7901) [µM] | IC50 at 48 h [1] [µM] | IC50 at 48 h [2] [µM] | viability at 48 h, 10 µM [3] [%] | viability at 48 h, 10 µM [4] [%] | inhibition (INH) (RAW264.7) [%]
CNC(=N)NCCC[C@H](N)C(=O)OC | 42.8 | – | – | – | – | – | – | – | – | –
C[C@@]12C[C@H]3OC(=O)[C@@H]1CO[C@]14O[C@@]5([C@H]2C1=O)[C@@]3(C)OC(=O)[C@@]5(O)CC[C@H]1[C@H]4C[C@@H](O)[C@@]2(O)CC=CC(=O)[C@]12C | 49.8 | > 50 | > 50 | > 50 | > 50 | > 50 | > 50 | – | – | –
C[C@@]12C[C@H]3OC(=O)[C@@H]1CO[C@]14O[C@@]5([C@H]2C1=O)[C@@]3(C)OC(=O)[C@@]5(O)CC[C@H]1[C@H]4C[C@H]2O[C@]23CC=CC(=O)[C@]13C | 7.9 | > 50 | > 50 | > 50 | > 50 | > 50 | > 50 | – | – | –
COC(=O)C[C@H](O)C(=O)O[C@]12CC=CC(=O)[C@]1(C)[C@H]1CC[C@]3(O)C(=O)O[C@@]4(C)[C@H]5C[C@]6(C)[C@@H](CO[C@]7(O[C@@]43[C@H]6C7=O)[C@@H]1C[C@H]2O)C(=O)O5 | 28 | > 50 | > 50 | > 50 | > 50 | > 50 | > 50 | – | – | –
C[C@]12C(=O)C=CC=C1[C@H](O)C[C@@H]1[C@@H]2CC[C@]2(O)C(=O)O[C@@]3(C)[C@H]4C[C@@]5(C)[C@@H]6C(=O)[C@@]1(OC[C@@]5(O)C(=O)O4)O[C@@]632 | 6.4 | > 50 | > 50 | > 50 | > 50 | > 50 | > 50 | – | – | –
COC(=O)CCC(=O)O[C@]12CC=CC(=O)[C@]1(C)[C@H]1CC[C@]3(O)C(=O)O[C@@]4(C)[C@H]5C[C@]6(C)[C@@H](CO[C@]7(O[C@@]43[C@H]6C7=O)[C@@H]1C[C@H]2O)C(=O)O5 | 3.1 | > 50 | > 50 | > 50 | > 50 | > 50 | > 50 | – | – | –
C[C@@]12C[C@H]3OC(=O)[C@@H]1CO[C@]14C(=O)O[C@@]5([C@H]21)[C@@]3(C)OC(=O)[C@@]5(O)CC[C@H]1[C@H]4CC[C@@]2(O)CC=CC(=O)[C@]12C | 78.7 | > 50 | > 50 | > 50 | > 50 | > 50 | > 50 | – | – | –
C[C@@H]1C(=O)O[C@@H]2C[C@@]1(C)[C@@H]1C(=O)[C@@]3(O)O[C@]14[C@@]2(C)OC(=O)[C@@]4(O)CC[C@H]1[C@H]3C[C@@H](O)[C@@]2(O)CC=CC(=O)[C@]12C | 56.6 | > 50 | > 50 | > 50 | > 50 | > 50 | > 50 | – | – | –
CO[C@]12CC=CC(=O)[C@]1(C)[C@H]1CC[C@]3(O)C(=O)O[C@@]4(C)[C@H]5C[C@]6(C)[C@@H](CO[C@@]7(O[C@@]43[C@H]6C7=O)[C@@H]1C[C@H]2O)C(=O)O5 | 75.3 | > 50 | > 50 | > 50 | > 50 | > 50 | > 50 | – | – | –
CO[C@]12C=CCC(=O)[C@]1(C)[C@H]1CC[C@]3(O)C(=O)O[C@@]4(C)[C@H]5C[C@]6(C)[C@@H](CO[C@]7(O[C@@]43[C@H]6C7=O)[C@@H]1C[C@H]2O)C(=O)O5 | 23.8 | > 50 | > 50 | > 50 | > 50 | > 50 | > 50 | – | – | –
C[C@]12C(=O)C=CCC1=CC[C@@H]1[C@@H]2[C@H]2C[C@]3(O)C(=O)O[C@@]4(C)[C@H]5C[C@@]6(C)[C@@H]7[C@@]2(O)[C@@]1(OC[C@H]6C(=O)O5)O[C@@]743 | 9.5 | > 50 | > 50 | > 50 | > 50 | > 50 | > 50 | – | – | –
C[C@@]12C[C@H]3OC(=O)[C@]1(O)CO[C@@]14O[C@@]5([C@H]2C1=O)[C@@]3(C)OC(=O)[C@@]5(O)CC[C@H]1[C@H]4C[C@H](O)[C@]2(O)CC=CC(=O)[C@]12C | 14.9 | > 50 | > 50 | > 50 | > 50 | > 50 | > 50 | – | – | –
C=C1C(=O)O[C@@H]2C[C@@]1(C)[C@@H]1C(=O)[C@@]3(O)O[C@]14[C@@]2(C)OC(=O)[C@@]4(O)CC[C@H]1[C@H]3[C@H](O)C=C2CC=CC(=O)[C@@]21C | 9.5 | > 50 | > 50 | > 50 | > 50 | > 50 | > 50 | – | – | –
C[C@@]12C[C@H]3OC(=O)[C@@H]1CO[C@@]14O[C@@]5([C@H]2C1=O)[C@@]3(C)OC(=O)[C@@]5(O)CC[C@H]1[C@H]4C[C@H](O)[C@]2(O)CC=CC(=O)[C@]12C | 43.8 | > 50 | > 50 | > 50 | > 50 | > 50 | > 50 | – | – | –
C=C1C(=O)O[C@@H]2C[C@@]1(C)[C@@H]1C(=O)[C@@]3(O)O[C@]14[C@@]2(C)OC(=O)[C@@]4(O)CC[C@H]1[C@H]3C[C@@H](O)[C@@]2(Cl)CC=CC(=O)[C@]12C | – | 2 | 4.9 | 2.1 | 1.1 | – | – | 90.1 | 98.1 | <50
C[C@@]12C[C@H]3OC(=O)[C@@H]1CO[C@@]14O[C@]56[C@H]2[C@]1(O)[C@H](C[C@]5(O)C(=O)O[C@@]36C)[C@H]1[C@H]4CC[C@]2(O)CC=CC(=O)[C@]12C | 3.6 | > 50 | > 50 | > 50 | > 50 | > 50 | > 50 | – | – | –
C[C@]12C(=O)CC=CC1=CC[C@@H]1[C@@H]2CC[C@]2(O)C(=O)O[C@@]3(C)[C@H]4C[C@@]5(C)[C@@H]6C(=O)[C@@]1(OC[C@@]5(O)C(=O)O4)O[C@@]632 | 17.5 | > 50 | > 50 | > 50 | > 50 | > 50 | > 50 | – | – | –
COC(=O)C(C)(O)[C@@]1(C)C[C@@H](O)[C@]2(C)OC(=O)[C@@]3(O)CC[C@H]4[C@@H](C[C@@H](O)[C@@]5(O)CC=CC(=O)[C@]45C)[C@]4(O)O[C@@]23[C@H]1C4=O (stereo partly drawn) | 2.9 | > 50 | > 50 | > 50 | > 50 | > 50 | > 50 | – | – | –
C[C@]12OC(=O)[C@@]3(O)CC[C@H]4[C@@H](C[C@@H](O)[C@]5(O)CC=CC(=O)[C@]45C)[C@@]45OC[C@H]6C(=O)O[C@@H]1C[C@@]6(CO)[C@H](C4=O)[C@]23O5 | 43.2 | > 50 | > 50 | > 50 | > 50 | > 50 | > 50 | – | – | –
C[C@]12C(=O)C=CCC1=CC[C@@H]1[C@@H]2CC[C@]2(O)C(=O)O[C@@]3(C)[C@H]4C[C@@]5(C)[C@@H]6C(=O)[C@@]1(OC[C@@]5(O)C(=O)O4)O[C@@]632 | – | 12.2 | 16.8 | 10.5 | 12.1 | – | – | 95.5 | 97.3 | –
C[C@@]12C[C@H]3OC(=O)[C@@H]1CO[C@@]14O[C@@]5([C@H]2C1=O)[C@@]3(C)OC(=O)[C@@]5(O)CC[C@H]1[C@H]4C[C@@H](O)[C@@]2(OC(=O)c3cccnc3)CC=CC(=O)[C@]12C | 13.6 | > 50 | > 50 | > 50 | > 50 | > 50 | > 50 | – | – | –
COC(=O)C[C@@H](O)C(=O)O[C@]12CC=CC(=O)[C@]1(C)[C@H]1CC[C@]3(O)C(=O)O[C@@]4(C)[C@H]5C[C@]6(C)[C@@H](CO[C@]7(O[C@@]43[C@H]6C7=O)[C@@H]1C[C@H]2O)C(=O)O5 | 32.3 | > 50 | > 50 | > 50 | > 50 | > 50 | > 50 | – | – | –
C[C@@]12C[C@H]3OC(=O)[C@@H]1CO[C@@]14O[C@]56[C@H]2[C@]1(O)[C@H](C[C@]5(O)C(=O)O[C@@]36C)[C@H]1[C@H]4CC(O)[C@]2(O)CC=CC(=O)[C@]12C (stereo partly drawn) | 9 | > 50 | > 50 | > 50 | > 50 | > 50 | > 50 | – | – | –
C[C@]12C(=O)C=CC=C1[C@@H](O)C[C@@H]1[C@@H]2CC[C@@]2(O)C(=O)O[C@@]3(C)[C@H]4C[C@]5(C)[C@@H](CO[C@@]16O[C@]23[C@H]5C6=O)C(=O)O4 [PHYSALIN G] | 13.5 | > 50 | > 50 | > 50 | > 50 | > 50 | > 50 | – | – | –
O=C(CCCCCCC(=O)Nc1ccccc1)NO [VORINOSTAT] | – | – | – | – | – | – | – | 87 | 92.5 | –
